Measured values as given in BindingDB's records for doi:10.1021/jm9807003 (National Institute of Diabetes, 1999).

Test: Ability to inhibit GTP-gamma-S binding to Opioid receptor delta 1 of guinea pig caudate

Compound: COc1ccc2c(c1O)[C@]13CCN(CC4CC4)[C@H](C2)[C@@H]1Cc1c([nH]c2ccccc12)C3 [17-cyclopropylmethyl-6,7-didehydro-4-hydroxy-3-methoxy-6,7:2',3'-indolmorphinan]
- Ki: 0.022 µM
